We go through 27 compounds from publication PMC12155096 (International Journal of Molecular Sciences, 2025).

Targets include human CYP2C9 (Homo sapiens, UniProt P11712); human CYP2D6 (Homo sapiens, UniProt P10635); CYP3A4 (Homo sapiens, UniProt P08684).
Another series concerns the target T1, human CYP1A2 (Homo sapiens, UniProt P05177).
T1 sequence (P05177 1-516): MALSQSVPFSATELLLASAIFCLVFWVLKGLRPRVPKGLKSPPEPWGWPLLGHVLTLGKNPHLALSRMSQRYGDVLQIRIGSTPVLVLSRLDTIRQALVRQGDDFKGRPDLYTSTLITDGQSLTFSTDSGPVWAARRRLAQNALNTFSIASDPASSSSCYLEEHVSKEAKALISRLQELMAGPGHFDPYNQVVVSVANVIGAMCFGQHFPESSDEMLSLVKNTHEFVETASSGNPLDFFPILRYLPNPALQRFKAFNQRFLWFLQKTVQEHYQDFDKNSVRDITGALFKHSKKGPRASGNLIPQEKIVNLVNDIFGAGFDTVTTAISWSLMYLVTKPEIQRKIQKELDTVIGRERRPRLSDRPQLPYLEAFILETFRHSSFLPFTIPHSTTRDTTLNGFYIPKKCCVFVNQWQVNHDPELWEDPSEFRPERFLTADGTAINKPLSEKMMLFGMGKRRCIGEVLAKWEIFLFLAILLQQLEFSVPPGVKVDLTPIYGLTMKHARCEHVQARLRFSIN

The target in series [1] is T2, human CYP2C19 (Homo sapiens, UniProt P33261). Nature of the series: biochemical.
T2 sequence (P33261 whole entry): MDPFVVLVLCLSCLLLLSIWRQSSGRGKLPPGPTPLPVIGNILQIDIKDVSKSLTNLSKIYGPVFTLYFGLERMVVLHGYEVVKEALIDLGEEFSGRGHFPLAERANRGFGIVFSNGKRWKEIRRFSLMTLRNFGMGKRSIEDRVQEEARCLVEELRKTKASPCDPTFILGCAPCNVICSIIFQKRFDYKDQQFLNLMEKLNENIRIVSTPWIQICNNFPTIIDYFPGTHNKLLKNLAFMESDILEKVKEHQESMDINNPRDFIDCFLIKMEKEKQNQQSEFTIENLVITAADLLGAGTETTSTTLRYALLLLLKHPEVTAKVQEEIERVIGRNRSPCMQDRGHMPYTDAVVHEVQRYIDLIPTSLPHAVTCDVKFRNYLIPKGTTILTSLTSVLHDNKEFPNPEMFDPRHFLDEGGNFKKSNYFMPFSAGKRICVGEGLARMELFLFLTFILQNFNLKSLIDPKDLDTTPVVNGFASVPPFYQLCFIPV
In series [2] the target is T2, human CYP2C19.

Read-outs that look alike come from different tables or passages of the source.

Chain of human CYP2D6 (P10635 whole entry): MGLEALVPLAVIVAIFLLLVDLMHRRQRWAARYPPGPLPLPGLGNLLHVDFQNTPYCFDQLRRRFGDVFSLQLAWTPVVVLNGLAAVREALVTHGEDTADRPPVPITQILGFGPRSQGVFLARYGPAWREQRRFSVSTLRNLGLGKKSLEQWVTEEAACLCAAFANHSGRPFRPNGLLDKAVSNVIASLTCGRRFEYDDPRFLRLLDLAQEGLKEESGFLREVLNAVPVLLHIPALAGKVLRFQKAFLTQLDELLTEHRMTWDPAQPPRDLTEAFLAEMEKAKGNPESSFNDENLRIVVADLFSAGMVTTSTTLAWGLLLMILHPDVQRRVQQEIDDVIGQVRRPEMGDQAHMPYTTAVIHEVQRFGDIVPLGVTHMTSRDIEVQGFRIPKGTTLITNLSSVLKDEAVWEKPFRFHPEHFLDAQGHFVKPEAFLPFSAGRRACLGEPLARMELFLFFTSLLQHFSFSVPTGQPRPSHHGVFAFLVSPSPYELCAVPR
Chain of CYP3A4 (P08684 whole entry): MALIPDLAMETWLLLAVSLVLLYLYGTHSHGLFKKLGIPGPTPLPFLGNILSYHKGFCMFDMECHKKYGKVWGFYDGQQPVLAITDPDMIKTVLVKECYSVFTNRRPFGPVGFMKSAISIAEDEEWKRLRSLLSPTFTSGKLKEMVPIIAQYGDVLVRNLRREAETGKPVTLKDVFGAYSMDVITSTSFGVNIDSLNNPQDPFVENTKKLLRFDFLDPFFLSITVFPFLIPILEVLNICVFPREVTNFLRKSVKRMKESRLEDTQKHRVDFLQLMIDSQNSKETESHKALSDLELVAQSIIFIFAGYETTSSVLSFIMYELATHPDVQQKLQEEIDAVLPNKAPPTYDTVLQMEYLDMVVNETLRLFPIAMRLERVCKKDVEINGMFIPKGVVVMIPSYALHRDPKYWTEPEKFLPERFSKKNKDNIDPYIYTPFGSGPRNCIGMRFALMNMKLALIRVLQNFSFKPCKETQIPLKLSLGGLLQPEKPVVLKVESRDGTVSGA
Chain of human CYP2C9 (P11712 whole entry): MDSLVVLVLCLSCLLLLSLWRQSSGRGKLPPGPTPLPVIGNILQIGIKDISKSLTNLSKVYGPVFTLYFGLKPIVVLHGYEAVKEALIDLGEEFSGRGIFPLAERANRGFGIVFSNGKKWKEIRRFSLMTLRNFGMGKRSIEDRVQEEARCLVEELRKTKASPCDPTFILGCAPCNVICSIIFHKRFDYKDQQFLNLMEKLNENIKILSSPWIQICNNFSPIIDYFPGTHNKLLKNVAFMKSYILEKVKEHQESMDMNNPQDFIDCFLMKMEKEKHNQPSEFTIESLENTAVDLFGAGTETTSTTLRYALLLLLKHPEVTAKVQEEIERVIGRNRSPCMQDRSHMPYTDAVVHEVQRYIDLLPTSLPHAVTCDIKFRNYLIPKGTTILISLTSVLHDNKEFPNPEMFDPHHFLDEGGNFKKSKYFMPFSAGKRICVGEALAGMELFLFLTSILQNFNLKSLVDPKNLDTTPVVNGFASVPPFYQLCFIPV

On to `CC(C)(C)c1cccc(O)c1` [3-tert-Butylphenol], for which, on human CYP1A2, the “CYP1A2 AC50 (half-maximal activity concentration)” value (from here on “CYP1A2 AC50”) is listed as “Inconclusive inhibitor”. Besides, the “CYP2C9 AC50 (half-maximal activity concentration)” value (“CYP2C9 AC50” below) on human CYP2C9 is “Inconclusive inhibitor”. Further, on human CYP2D6, the “CYP2D6 AC50 (half-maximal activity concentration)” value (from here on “CYP2D6 AC50”) is recorded as “Inactive”. Besides, the “CYP3A4 AC50 (half-maximal activity concentration)” value (“CYP3A4 AC50” below) on CYP3A4 is “Inactive”. The AC50 on human CYP2C19 [1] came out at 23.9 µM.
As to `N.O=C(O)C(F)(F)C(F)(F)C(F)(F)C(F)(F)C(F)(F)C(F)(F)C(F)(F)F` [PFOA, ammonium salt], the “CYP1A2 AC50” value at human CYP1A2 is on record as “Inactive”. Moreover, the AC50 on human CYP2C9 came out at 1.78 µM; on human CYP2C19 [2], 60.8 µM; on CYP3A4, 76.8 µM. At human CYP2D6, the “CYP2D6 AC50” value was “Inactive”.
In the case of `O=C(O)C(F)(F)C(F)(F)C(F)(F)C(F)(F)C(F)(F)C(F)(F)C(F)(F)F` [PFOA], the “CYP1A2 AC50” value at human CYP1A2 is “Inactive”. The AC50 stood at 2.52 µM on human CYP2C9 and 70.8 µM on CYP3A4. Moreover, the “CYP2C19 AC50 (half-maximal activity concentration)” value (“CYP2C19 AC50” below) on human CYP2C19 [2] was “Inactive”. At human CYP2D6, the “CYP2D6 AC50” value was “Inactive”.
`CCOC(=O)c1ccc(N(C)C)cc1` [Parbenate]: the AC50 worked out at 4.68 µM on human CYP1A2, 31.9 µM on human CYP2C9, 21.6 µM at human CYP2C19 [2] and 47.9 µM at CYP3A4. Besides, the “CYP2D6 AC50” value on human CYP2D6 is “Inactive”.
The like results for `O=C(OCCCCCOC(=O)c1ccccc1)c1ccccc1` [Pentane-1,5-diyl dibenzoate] were, in that order, 8.29 µM, 10.5 µM, 48.1 µM, 26.9 µM and “Inactive”.
As for `CN1C(=O)N(c2ccccc2Br)Cc2cnc(Nc3ccc4c(c3)OCC(CO)O4)nc21` (stereo not drawn) [PharmaGSID_48519], the AC50 amounted to 30.7 µM on human CYP1A2; 12.2 µM at human CYP2C9; 5.72 µM at human CYP2C19 [2]; 56.6 µM at human CYP2D6; 1.4 µM on CYP3A4.
Consider `CC(C)C(=O)OCCOc1ccccc1` [Phenoxyethyl isobutyrate], for which the AC50 at human CYP1A2 worked out at 31.9 µM; on human CYP2C9, 36 µM; at human CYP2C19 [2], 38.5 µM; at CYP3A4 it was 22.6 µM. The “CYP2D6 AC50” value on human CYP2D6 was “Inactive”.
As for `CCC(=O)OCCOc1ccccc1` [Phenoxyethyl propionate], the AC50 was determined as 55.5 µM on human CYP1A2 and 47.1 µM on CYP3A4. Also, the “CYP2C9 AC50” value on human CYP2C9 is listed as “Inconclusive”. Besides, the “CYP2C19 AC50” value on human CYP2C19 [2] is listed as “Inconclusive inhibitor”. Further, the “CYP2D6 AC50” value at human CYP2D6 is “Inactive”.
Turning to `COC(=O)c1ccccc1C(=O)c1ccc(OCCN2CCCCC2)cc1.Cl` [Pitofenone hydrochloride], the “CYP1A2 AC50” value at human CYP1A2 is on record as “Inactive”. The “CYP2C9 AC50” value at human CYP2C9 was “Inactive”. Also, the “CYP2C19 AC50” value on human CYP2C19 [2] is “Inactive”. Also, the AC50 on human CYP2D6 came to 14.9 µM; at CYP3A4, 15.5 µM.
On to `CCCOc1ccc2c(c1)CC[C@@H]1[C@@H]2CC[C@]2(C)[C@@H](OC)CC[C@@H]12` [Promestriene], for which the AC50 on human CYP1A2 came out at 33.7 µM; on human CYP2D6, 21.5 µM; on CYP3A4, 9.46 µM. On human CYP2C9, the “CYP2C9 AC50” value is on record as “Inconclusive inhibitor”. Besides, on human CYP2C19 [2], the “CYP2C19 AC50” value is “Inconclusive inhibitor”.
With `CCCCCCCCS(=O)(=O)[O-].[Na+]` [Sodium 1-octanesulfonate], the “CYP1A2 AC50” value on human CYP1A2 was “Inactive”. Also, the AC50 is 44.1 µM on human CYP2C9 and 33.1 µM on CYP3A4. For the same compound, the “CYP2C19 AC50” value at human CYP2C19 [2] is given as “Inactive”. Besides, the “CYP2D6 AC50” value on human CYP2D6 is reported as “Inactive”.
For `CCCCCCCCc1ccc(S(=O)(=O)[O-])cc1.[Na+]` [Sodium 4-octylbenzenesulfonate], at human CYP1A2, the “CYP1A2 AC50” value is recorded as “Inactive”. The results for the AC50 at human CYP2C9 and on CYP3A4 were 76.8 µM and 63.9 µM, respectively. Besides, at human CYP2C19 [2], the “CYP2C19 AC50” value is “Inactive”. For the same compound, at human CYP2D6, the “CYP2D6 AC50” value is listed as “Inactive”.
Turning to `C=Cc1ccc(S(=O)(=O)[O-])cc1.[Na+]` [Sodium 4-vinylbenzenesulfonate], the AC50 at human CYP1A2 is 63.5 µM; on CYP3A4 it was 30.1 µM. For the same compound, the “CYP2C9 AC50” value on human CYP2C9 was “Inactive”. In addition, at human CYP2C19 [2], the “CYP2C19 AC50” value is recorded as “Inactive”. The “CYP2D6 AC50” value at human CYP2D6 is reported as “Inactive”.
Turning to `CCOC(=O)c1ccc(NC(=O)CN2CCCCC2)cc1` [Sulcaine], the AC50 on human CYP1A2 worked out at 22.2 µM; at human CYP2C9, 37.8 µM; on human CYP2D6, 16.8 µM; on CYP3A4 it was 26.4 µM. Also, the “CYP2C19 AC50” value on human CYP2C19 [2] is given as “Inactive”.
As for `O=C(O)CC(C(=O)O)S(=O)(=O)O` (stereo not drawn) [Sulfosuccinic acid], the AC50 stood at 33 µM at human CYP1A2, 11.9 µM at human CYP2C19 [2], 60.6 µM at human CYP2D6 and 43.2 µM at CYP3A4. Moreover, the “CYP2C9 AC50” value on human CYP2C9 is on record as “Inactive”.
As to `CN(C)C1CSSSC1.O=C(O)C(=O)O` [Thiocyclam oxalate], the AC50 on human CYP1A2 stood at 61 µM; on human CYP2C9, 28.3 µM; at human CYP2C19 [2], 38.5 µM; at human CYP2D6 it was 38.5 µM; at CYP3A4, 33 µM.
With `Cc1ccc(C(C)OC(=O)[C@]2(C)CC[C@H](C(=O)O)C2(C)C)cc1.OCCNCCO` (stereo partly drawn) [Tocanfil], the “CYP1A2 AC50” value at human CYP1A2 was “Inactive”. In addition, the AC50 on human CYP2C9 came to 36.1 µM; at CYP3A4, 14.4 µM. The “CYP2C19 AC50” value on human CYP2C19 [2] was “Inactive”. For the same compound, at human CYP2D6, the “CYP2D6 AC50” value is “Inactive”.
`CCCCCCCCCCCC(=O)O.OCCN(CCO)CCO` [Triethanolamine Laurate]: the “CYP1A2 AC50” value on human CYP1A2 is on record as “Inconclusive inhibitor”. The AC50 was found to be 115 µM at human CYP2C9, 135 µM on human CYP2C19 [2] and 89.2 µM at CYP3A4. For the same compound, the “CYP2D6 AC50” value on human CYP2D6 is reported as “Inactive”.
With `O=C(OCCOCCOCCOC(=O)c1ccccc1)c1ccccc1` [Triethylene glycol dibenzoate], the AC50 on human CYP1A2 came to 17.8 µM; at human CYP2C9 it was 2.75 µM; at human CYP2C19 [2], 20.8 µM. Besides, the “CYP2D6 AC50” value on human CYP2D6 is “Inconclusive inhibitor”. For the same compound, the “CYP3A4 AC50” value at CYP3A4 is reported as “Inactive”.
In the case of `COC(=O)c1ccc(C(=O)OC)c(C(=O)OC)c1` [Trimethyl benzene-1,2,4-tricarboxylate], the AC50 on human CYP1A2 was 7.19 µM; at human CYP2C19 [2] it was 32.3 µM; on CYP3A4, 49.9 µM. Further, the “CYP2C9 AC50” value at human CYP2C9 was “Inactive”. In addition, the “CYP2D6 AC50” value at human CYP2D6 is listed as “Inactive”.
With `O=C(CCC1CCN(Cc2ccccc2)CC1)c1ccc2c(c1)NCCCC2.O=C(O)/C=C/C(=O)O` [Zanapezil fumerate], at human CYP1A2, the “CYP1A2 AC50” value was “Inconclusive inhibitor”. Moreover, the “CYP2C9 AC50” value on human CYP2C9 is given as “Inconclusive inhibitor”. In addition, on human CYP2C19 [2], the “CYP2C19 AC50” value is recorded as “Inactive”. For the same compound, the AC50 turned out to be 7.12 µM at human CYP2D6 and 3.4 µM at CYP3A4.
Consider `C[C@H](CSC(=O)c1ccccc1)C(=O)N1C[C@@H](Sc2ccccc2)C[C@H]1C(=O)O` [Zofenopril], for which the “CYP1A2 AC50” value at human CYP1A2 is recorded as “Inactive”. The “CYP2C9 AC50” value at human CYP2C9 was “Inactive”. For the same compound, at human CYP2D6, the “CYP2D6 AC50” value is reported as “Inactive”. In addition, the “CYP3A4 AC50” value on CYP3A4 is “Inactive”. In addition, on human CYP2C19 [1] (CYP2C19 AC50 (half-maximal activity concentration)), the AC50 was found to be 1.71 µM.
Consider `CCCCC/C(=C\c1ccccc1)CO` [alpha-Amylcinnamyl alcohol], for which the AC50 on human CYP1A2 is 3.72 µM; at human CYP2C9, 36.6 µM; at human CYP2C19 [2] it was 1.66 µM; on CYP3A4, 13.7 µM. For the same compound, the “CYP2D6 AC50” value on human CYP2D6 is recorded as “Inconclusive inhibitor”.
Consider `CC1(C)[C@H](C(=O)OCc2cccc(Oc3ccccc3)c2)[C@@H]1C=C(Cl)Cl` [cis-Permethrin in cyclohexane], for which, at human CYP1A2, the “CYP1A2 AC50” value was “Inactive”. In addition, at human CYP2C9, the “CYP2C9 AC50” value is recorded as “Inactive”. Moreover, on human CYP2C19 [2], the “CYP2C19 AC50” value is “Inactive”. Moreover, the “CYP2D6 AC50” value at human CYP2D6 is reported as “Inactive”. For the same compound, on CYP3A4, the “CYP3A4 AC50” value is “Inactive”.
For the compound `CC(C)(C)c1ccc(OP(=O)(Oc2ccccc2)Oc2ccccc2)cc1` [tert-Butylphenyl diphenyl phosphate], the AC50 was found to be 18 µM at human CYP1A2, 5.93 µM on human CYP2C9, 5.26 µM at human CYP2C19 [2] and 8.02 µM at CYP3A4. Besides, the “CYP2D6 AC50” value on human CYP2D6 is reported as “Inactive”.
Mancozeb: the AC50 at human CYP1A2 worked out at 14.9 µM; at human CYP2C9 it was 3.48 µM; on human CYP2C19 [2], 4.72 µM; on CYP3A4, 5.17 µM. The “CYP2D6 AC50” value at human CYP2D6 was “Inconclusive inhibitor”.
In the case of Naphthenic acids, the AC50 at human CYP1A2 turned out to be 59.4 µM; on human CYP2C9 it was 36.4 µM; on human CYP2C19 [2], 46.4 µM; on CYP3A4, 84.8 µM. For the same compound, at human CYP2D6, the “CYP2D6 AC50” value is reported as “Inactive”.
